Here are results for one compound from patent US20200022936A1, “COMBINATIONS OF DICLOFENAC, H2 RECEPTOR ANTAGONISTS AND ALKALI METAL BICARBONATES FOR THE TREATMENT OF PAIN AND INFLAMMATION” (priority 2017, published 2020).

This data set can be described thus: in vivo. The conditions noted are these: male, Wistar, rat, po. Set-up: species or system Wistar rats. The source says: The primary objective of the test was to compare the pharmacokinetics of diclofenac potassium when used as a single active compound with diclofenac potassium in combination with famotidine and/or potassium bicarbonate. In this experimental study, the aim was to observe how the addition of potassium bicarbonate to diclofenac and famotidine would change the pharmacokinetic properties of diclofenac potassium when diclofenac potassium is given alone or in combination with famotidine and/or potassium bicarbonate.
Male Wistar rats (240-260 g) were used in the study. The rats were maintained in an air-conditioned animals quarter at a temperature of 22±2° C. and a relative humidity of 50±10%. Food and water were allowed ad libitum. The animals were acclimatized to the facilities for five days, and then fasted with free access to water for 12 h prior to the experiment. All the animals were housed under similar conditions.
Bioavailability and pharmacokinetics of diclofenac were studied in all the normal state of rats following an oral administration of 1 mg/kg diclofenac potassium, 0.4 mg/kg famotidine and 0.72 mg/kg or 0.36 mg/kg potassium bicarbonate in different occasions. Each rat was further subjected to similar studies after administration of diclofenac potassium and/or diclofenac in combination with famotidine. A total of 30 rats were used in the study divided into 5 groups, each group was administered; diclofenac alone, or 4 different combinations of diclofenac as outlined below.
Six male and/or female rats per group were lavaged with 1 mg/kg Diclofenac potassium and combinations at a dosing volume of 2 ml/kg. Blood (0.2 ml) was taken from the tail vein prior to administration of test substances (0 h) and after 0.083, 0.167, 0.25, 0.5, 1, 2, 4, 8 and 12 h.
Blood samples were collected in tubes containing %5 Na2-EDTA and kept on ice until 50 ul dichloromethane was added and they were centrifuged at 7000×g for 5 min at 4° C. and supernatants were collected for LC/MSMS analysis.

As for `O=C(O)Cc1ccccc1Nc1c(Cl)cccc1Cl` [Diclofenac-K, 2[(2,6-dichlorophenyl)amino]benzeneacetic acid], the Cmax (as a rule, the highest concentration seen after dosing) came to 1260 ng/mL and the Tmax of diclofenac was 15 min. In addition, for the setting “1 mg/kg”, the exposure AUC(0-t) (in general, the area under the concentration-time curve up to a stated or last time point) is 7510 ng·h/mL; the peak concentration (Cmax) was 1262 ± 0.048 ng/mL; the Tmax (in general, the time from dosing to the highest level) amounted to 15 min. Moreover, the “Blood Concentrations of Diclofenac Potassium” value (shortened to “Blood Concentrations”) (1 mg/kg, 0.083 h) amounted to 1.096 ± 0.054. For the same compound, under “1 mg/kg, 0.25 h”, the “Blood Concentrations” value was determined as 1.262 ± 0.048. Moreover, the “Blood Concentrations” value (1 mg/kg, 0.5 h) is 1.078 ± 0.137. For the setting “1 mg/kg, 1 h”, the “Blood Concentrations” value worked out at 0.943 ± 0.015. The “Blood Concentrations” value (1 mg/kg, 2 h) was 0.600 ± 0.159. The “Blood Concentrations” value (1 mg/kg, 4 h) is reported as 0.600 ± 0.015. The “Blood Concentrations” value (1 mg/kg, 8 h) was found to be 0.578 ± 0.033. Further, under “1 mg/kg, 12 h”, the “Blood Concentrations” value was 0.486 ± 0.092.
